Measured values taken from ChEMBL document CHEMBL4616678, “Design, Synthesis, and Physicochemical and Pharmacological Profiling of 7-Hydroxy-5-oxopyrazolo[4,3-b]pyridine-6-carboxamide Derivatives with Antiosteoarthritic Activity In Vivo” (J Med Chem, 2020).
≈ marks a conversion by molar mass, not a printed value.

Assays:
NIH3T3 = assay: Cytotoxicity against mouse NIH/3T3 assessed as reduction in cell viability after 1 to 14 days by Neutral red dye-based UV-visible spectrophotometer analysis; assay type: functional
[1] = Kinetic solubility of the compound at pH 1.0 by HPLC-UV method; assay type: physicochemical; details: buffer, read-out: Kinetic_solubility
Cannabinoid receptor 2 [2] = molecular target: T1, Cannabinoid receptor 2 (Homo sapiens, UniProt P34972); assay: Agonist activity at recombinant human CB2R expressed in CHOK1 cells assessed as inhibition of NKH477-stimulated intracellular cAMP levels after 30 mins by chemiluminescent detection based cAMP Hunter assay; assay type: functional, cell-based, CHO-K1
Cannabinoid receptor 1 = Cannabinoid receptor 1 (Homo sapiens, UniProt P21554); assay: Displacement of [3H]-CP-55,940 from recombinant human CB1R expressed in HEK293 cell membranes
[3] = Kinetic solubility of the compound at pH 7.4 by HPLC-UV method; assay type: physicochemical; details: buffer, read-out: Kinetic_solubility
Cannabinoid receptor 2 [4] = molecular target: T1, Cannabinoid receptor 2; assay: Displacement of [3H]-CP-55,940 from recombinant human CB2R expressed in HEK293 cell membranes
[5] = Cytotoxicity against human NHAC-kn assessed as reduction in cell viability after 1 to 14 days by Neutral red dye-based UV-visible spectrophotometer analysis; assay type: functional
Homo sapiens = species: Homo sapiens; assay: Selectivity index, ratio of Ki for recombinant human CB1R expressed in HEK293 cell membranes to Ki for recombinant human CB2R expressed in HEK293 cell membranes; assay type: cell-based
[6] = Lipophilicity, log P of the compound by UV-vis spectra analysis; assay type: physicochemical; details: octanol/water
[7] = Ionization Constants, pKa of the compound by UV-vis spectra analysis; assay type: physicochemical
Cannabinoid receptor 2 [8] = molecular target: T1, Cannabinoid receptor 2; assay: Inverse agonist activity at recombinant human CB2R expressed in CHOK1 cells assessed as increase in NKH477-stimulated intracellular cAMP levels after 30 mins by chemiluminescent based cAMP Hunter assay; assay type: functional, cell-based, CHO-K1

Sequence of Cannabinoid receptor 1 (P21554 whole entry): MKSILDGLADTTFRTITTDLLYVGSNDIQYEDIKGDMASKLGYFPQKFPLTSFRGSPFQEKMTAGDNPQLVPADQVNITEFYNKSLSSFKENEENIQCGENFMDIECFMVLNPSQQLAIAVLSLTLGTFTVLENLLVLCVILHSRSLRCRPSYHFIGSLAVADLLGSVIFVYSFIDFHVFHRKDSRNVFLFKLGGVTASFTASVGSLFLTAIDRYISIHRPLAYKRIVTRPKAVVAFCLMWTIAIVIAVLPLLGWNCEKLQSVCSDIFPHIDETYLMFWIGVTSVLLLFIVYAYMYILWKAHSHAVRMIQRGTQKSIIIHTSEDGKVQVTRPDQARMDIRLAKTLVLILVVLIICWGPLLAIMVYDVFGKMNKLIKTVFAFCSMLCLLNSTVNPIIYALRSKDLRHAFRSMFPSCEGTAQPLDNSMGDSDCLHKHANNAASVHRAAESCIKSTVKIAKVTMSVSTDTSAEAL
T1 sequence (P34972 whole entry): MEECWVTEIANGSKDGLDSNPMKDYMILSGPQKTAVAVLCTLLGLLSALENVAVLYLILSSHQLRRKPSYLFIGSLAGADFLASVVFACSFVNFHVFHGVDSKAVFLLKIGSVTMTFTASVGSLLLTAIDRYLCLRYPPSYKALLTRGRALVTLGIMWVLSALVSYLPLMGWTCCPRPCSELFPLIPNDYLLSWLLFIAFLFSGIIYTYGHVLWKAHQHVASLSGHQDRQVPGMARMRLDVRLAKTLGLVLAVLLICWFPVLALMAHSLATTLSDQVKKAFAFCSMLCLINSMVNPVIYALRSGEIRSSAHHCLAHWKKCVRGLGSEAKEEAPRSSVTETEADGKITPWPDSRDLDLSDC

Structure (SMILES)	IC50 (NIH3T3) [µM]	solubility kinetic [1] [µg/mL]	EC50 (Cannabinoid receptor 2 [2]) [µM]	Ki (Cannabinoid receptor 1) [µM]	solubility kinetic [3] [µg/mL]	Ki (Cannabinoid receptor 2 [4]) [µM]	IC50 [5] [µM]	Ratio Ki (Homo sapiens)	logP [6]	pKa [7]	EC50 (Cannabinoid receptor 2 [8]) [µM]
CN1N=CC2C1C(O)=C(C(=O)NC13CC4CC(CC(O)(C4)C1)C3)C(=O)N2CCCCF (configuration not stated)	25	9.1 (≈ 20.9 µM)	0.0718	0.161	15.1 (≈ 34.8 µM)	0.0189	7.5				
CCCn1c(=O)c(C(=O)NC23CC4CC(CC(C4)C2)C3)c(O)c2nn(CCOC(C)=O)cc21				> 1	1.1 (≈ 2.41 µM)	0.186		5			
CCCCn1c(=O)c(C(=O)NC23CC4CC(CC(O)(C4)C2)C3)c(O)c2nn(C)cc21	7.5	15 (≈ 36.2 µM)		> 1	20.9 (≈ 50.4 µM)	0.0106	2.5		4.08	7.9	
Cn1cc2c(n1)c(O)c(C(=O)NC13CC4CC(CC(O)(C4)C1)C3)c(=O)n2CCCCF	25	39.9 (≈ 92.3 µM)		> 1	37.6 (≈ 86.9 µM)	0.0062	12.5		3.15	7.97	0.59
Cn1cc2c(n1)c(O)c(C(=O)NC13CC4CC(CC(C4)C1)C3)c(=O)n2CCCCO	25	2.53 (≈ 6.1 µM)		> 1	3.2 (≈ 7.72 µM)	0.0143	12.5				1.45
CCCCN1C(=O)C(C(=O)NC23CC4CC(CC(O)(C4)C2)C3)=C(O)C2C1C=NN2C (configuration not stated)	25	2.1 (≈ 5.04 µM)		0.0869	4.6 (≈ 11 µM)	0.0193	7.5		4.85	7.56	
CCCCCn1c(=O)c(C(=O)NC23CC4CC(CC(C4)C2)C3)c(O)c2nn(C)cc21		2.9 (≈ 7.03 µM)		0.0335	1.9 (≈ 4.61 µM)	0.00018		167			1.18
CCCCCN1C(=O)C(C(=O)NC23CC4CC(CC(C4)C2)C3)=C(O)C2C1C=NN2C (configuration not stated)		0.4 (≈ 0.965 µM)	0.252	0.056	1.08 (≈ 2.61 µM)	0.0009		62			
CCCCn1c(=O)c(C(=O)NC23CC4CC(CC(C4)C2)C3)c(O)c2nn(CCO)cc21	12.5	1.6 (≈ 3.73 µM)		> 1	2.1 (≈ 4.9 µM)	0.0184	2.5				
CCCCCn1cc(C(=O)NC23CC4CC(CC(C4)C2)C3)c(=O)c2cc(C(C)C)ccc21					1 (≈ 2.3 µM)						
